Laboratory results from patent publication US5550124A, “Use of peripheral-type benzodiazpine sites for treatment of CNS trauma or disease” (priority 1991, dated 1996).

Legend:
[1] = target: T1, peripheral-type BZ receptors (Rattus norvegicus, UniProt P16257); experiment: Competitive binding assay, displacement of 3H-Ro5-4864 in brain homogenates
T1 construct: displacement of ^3 H-RO5-4864 in brain homogenates; from tissue; host or cells: brain homogenates
From the text: Sprengel, R., et al., "Molecular cloning and expression of cDNA encoding a peripheral-type benzodiazepine receptor," J. Biol. Chem., 264:20415-20421 (1989).
Some of these compounds were further tested in in vivo studies.

[2] = in vivo; cited from earlier work
[3] = assay type: in vivo, mice (male CF-1)
[4] = Physical trauma (head injury) model, grip score 18 hours post-injury; assay type: in vivo, mice (male CF-1)
From the text: Two tests which can be readily performed are observation of grip score and observation of grip time in injured test animals. Another test for agonist activity is for decrease in mortality caused by the CNS injury. Mice can be treated to simulate CNS injury by a variety of methods: they can be deprived of oxygen by administration of KCN (Nauquier, A., et al., Arch. Int. Pharmacodyn., 249:330 (1981)) or by temporary tying-off of the carotid artery (Braughler, J. M. and Lainer, M. J., "The effects of large doses of methylprednisolone on neurologic recovery and survival in the Mongolian gerbil following three hours of unilateral carotid occlusion," CNS Trauma, 3:153-162 (1986)). Alternatively, blows can be administered to the head or the spinal cord of the test animal.
The following protocol was used:
The compound to be tested was weighed and suspended in a polyethylated castor oil solution ("Cremophore") (21% Cremaphore, 3% ethanol in 0.9% saline). The concentration of the solution was then adjusted for administration at a dose of 0.01 cc/gm body weight. For example, for a dose of 10 mg/Kg, the solution was made 1.0 mg/cc, and a 23 g mouse would receive 0.23 cc of this solution. The solution was sonicated for approximately 90 minutes, or until the compound is dissolved.
Male CF-1 mice (15-25 gm) were weighed and marked for identification purposes. Each individual mouse was restrained by grasping the dorsal skin of the neck until the mouse was still. An impounder was used to administer the trauma. The impounder consists of a weight suspended over the animal's head at a height sufficient to produce significant injury when dropped, and a means for immobilizing the animal (in this case, room to hold the animal in place). […] 62:882-887, 883. The mouse was positioned properly under the impounder, and the weight was released from its preset height (11 CM).
Immediately following injury, the mouse was placed under a heat lamp. At various times after injury, the drug was administered intravenously at the specified dose. The time of injury and the time of injection were recorded.
B) Measurement of Grip Score
Each mouse was evaluated 18 hours post-injury for neurological deficit. The delay of 18 hours provided time for any sedative effects of the compound to wear off. It also provided time for healing to occur. Mortality was also noted. A standard grip test, as described in Hall et al., J. Neurosurg. 68:456-461 (1988), was used. The apparatus consisted of a taut string suspended between two uprights, 60 cm in length and 40 cm above a padded table.
Each mouse was picked up by the tail and placed on the string. […] The tail was then released. Grip score was recorded based on the mouse's performance while on the string. The following criteria were used (taken from Hall, E. D., J. Neurosurg. 62:882-887 (1985)):
C) Statistical Analysis Results of the above test were analyzed for statistical significance using the Mann-Whitney U test. See R. V. Tallarida & R. B. Murray, MANUAL OF PHARMACOLOGIC CALCULATIONS WITH COMPUTER PROGRAMS, Springer-Verlag, N.Y., pp. 57-59 (1981). This test was used to compare each set of grip scores for a particular dose of a particular compound against the grip scores for the control group.

CCC(C)N(C)C(=O)c1cc2ccccc2c(-c2ccccc2Cl)n1 (stereo not shown) [PK 11195, N-methyl-N-1-(1-methyl,propyl)(2-chlorophenyl)-3-isoquinoline carboxamide]
binding affinity to peripheral-type BZ sites (in words) [1]: high degree of affinity
effect in cardiac ischemia [2]: ineffective in treating cardiac ischemia
percent survival (in words) ([3]; after KCN, increasing dose of compound, FIG. 10): increasing the dose of the compound increases the percent survival
protection against KCN mortality (in words) ([3]; varied KCN dose, FIG. 11): protect against higher doses of KCN
grip score 18 hours post trauma (in words) ([4]; 0.1 mg/kg i.v., FIG. 1): statistically significant increase in the grip score
neurological deficit score (grip score) ([4]; 1 mg/kg i.v., 5 min post injury, control 2.06 ± 0.23, P<0.05): 3.07 ± 0.47
neurological deficit score (grip score) ([4]; 1 mg/kg i.v., 30 min post injury, control 1.54 ± 0.43, P<0.004): 3.53 ± 0.36
neurological deficit score (grip score) ([4]; 1 mg/kg i.v., 60 min post injury, control 2.54 ± 0.51): 1.93 ± 0.42
neurological deficit score (grip score) ([4]; 10 mg/kg i.v., 5 min post injury, control 2.06 ± 0.23, P<0.05): 2.89 ± 0.40
neurological deficit score (grip score) ([4]; 10 mg/kg i.v., 30 min post injury, control 1.56 ± 0.50): 2.53 ± 0.40
neurological deficit score (grip score) ([4]; 10 mg/kg i.v., 60 min post injury, control 1.38 ± 0.60, P<0.03): 2.62 ± 0.40
grip score versus controls (in words) ([4]; 10 mg/kg, administered up to 1 hour post-injury): statistically significant increase in grip score
effectiveness in treatment of CNS trauma/damage (in words) ([4]; grip score 18 h post trauma, FIGS. 1-8): effective
